Nine molecules from US12600709B2, “Nonpeptide somatostatin type 5 receptor agonists and uses thereof” (Crinetics Pharmaceuticals, Inc., priority 2019, dated 2026) can be followed below.

Where two headings read alike, the source gives them in different places.

The target of assay [1] is T1, human somatostatin receptor subtype 2 (Homo sapiens, UniProt P30874).
T1 construct: expressed in transfected cells
Nature of the assay: cAMP assay for SST2R (inhibition of cAMP in CHO-K1 cells). Type of assay: cell-based. The following applies: Table B; inhibition of cAMP via human SST2 receptor; read-out: SST2 potency. From the text: General overview: All five SSTR subtypes are Gi coupled G-protein coupled receptors (GPCRs) that lead to decreases in intracellular cyclic AMP (cAMP) when activated by an agonist. Therefore, measurement of intracellular cAMP levels can be used to assess whether compounds of the invention are agonists of SSTR subtypes (John Kelly, Troy Stevens, W. Joseph Thompson, and Roland Seifert, Current Protocols in Pharmacology, 2005, 2.2.1-2.2). One example of an intracellular cAMP assay is described below.
cAMP Assay Protocol for SST2R:
Four days prior to the assay, 5,000 Chinese hamster ovary cells (CHO-K1, ATCC #CCL-61) stably expressing the human somatostatin receptor subtype 2 are plated in each well of a 96-well tissue culture-treated plate in Ham's F12 growth media (ThermoFisher #10-080-CM) supplemented with 10% donor bovine serum (Gemini Bio-Products #100-506), 100 U/mL penicillin; 100 μg/mL streptomycin; 2 mM L-glutamine (Gemini Bio-Products #400-110) and 0.2 mg/mL hygromycin B (GoldBio #31282-04-9). The cells are cultured at 37° C., 5% CO2 and 95% humidity. On the day of the assay, the media is aspirated and the cells are treated with 50 μL of 1.6 μM NKH477 (Sigma #N3290) plus various dilutions of compounds of the invention in assay buffer [1× Hank's Balanced Salt Solution (ThermoFisher #SH3058802), 0.5 mM HEPES pH 7.4, 0.1% bovine serum albumin, 0.2 mM 3-Isobutyl-1-methylxanthine (IBMX, VWR #200002-790)]. The cells are incubated for 20 minutes at 37° C. […] The cells are treated with 50 μL of lysis buffer (HRTF cAMP kit, Cisbio). The lysate is transferred to 384-well plates and cAMP detection and visualization antibodies are added and incubated for 1-24 hours at room temperature. The time-resolved fluorescent signal is read with a Tecan M1000Pro multiplate reader. The intracellular cAMP concentrations are calculated by regression to a standard curve and are plotted vs. the concentration of the compounds of the invention and the EC50 of the compounds are calculated using standard methods. All data manipulations are in GraphPad Prism v6 or v7.
Background: Cyclic AMP is a second messenger, typically raised through Gs and lowered through Gi signalling.

Assay [2] has as its target T2, human somatostatin receptor subtype 5 (Homo sapiens, UniProt P35346).
T2 construct: expressed in transfected cells
Nature of the assay: cAMP assay for SST5R (inhibition of cAMP in CHO-K1 cells). The following applies: for EC50: inhibition of cAMP via human SST5 receptor, read-out: SST5 potency; for Fold selectivity for SST5 vs SST2: class symbols, SST5 receptor over SST2 receptor. Type of assay: cell-based. The gist of the method:
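CHO-K1 cells stably expressing human SSTR5 were treated 20 min at 37 °C with compounds plus 1.6 μM NKH477 in HBSS, 0.5 mM HEPES pH 7.4, 0.1% BSA, 0.2 mM IBMX. Lysate cAMP measured by HTRF against a standard curve; EC50 from cAMP-versus-concentration plots.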

T2 sequence (P35346 whole entry): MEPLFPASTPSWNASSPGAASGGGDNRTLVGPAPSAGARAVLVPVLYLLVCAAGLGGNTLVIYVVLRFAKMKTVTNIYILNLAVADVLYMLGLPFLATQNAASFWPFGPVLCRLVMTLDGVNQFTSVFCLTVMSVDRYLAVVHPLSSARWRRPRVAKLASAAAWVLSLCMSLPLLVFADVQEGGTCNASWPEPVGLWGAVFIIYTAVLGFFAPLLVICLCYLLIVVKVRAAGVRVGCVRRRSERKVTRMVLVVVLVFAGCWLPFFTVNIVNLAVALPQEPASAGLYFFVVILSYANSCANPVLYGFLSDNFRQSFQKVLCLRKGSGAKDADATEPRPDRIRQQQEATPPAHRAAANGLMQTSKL
T1 sequence (P30874 whole entry): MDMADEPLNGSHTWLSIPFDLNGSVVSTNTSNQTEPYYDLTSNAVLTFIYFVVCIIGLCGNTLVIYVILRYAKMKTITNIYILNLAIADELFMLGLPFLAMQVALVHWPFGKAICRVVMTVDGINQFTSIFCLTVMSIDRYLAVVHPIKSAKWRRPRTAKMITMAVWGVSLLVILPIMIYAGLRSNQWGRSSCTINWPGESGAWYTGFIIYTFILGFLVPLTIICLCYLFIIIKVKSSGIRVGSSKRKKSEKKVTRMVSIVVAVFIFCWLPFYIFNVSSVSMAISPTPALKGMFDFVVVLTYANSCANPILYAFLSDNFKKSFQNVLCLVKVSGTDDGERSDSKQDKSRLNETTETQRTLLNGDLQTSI

`N#Cc1ncc(C(=O)NC2CCC(F)(F)CC2)c(N2CC[C@H](N)C2)c1-c1cc(F)cc(F)c1` [1-67, 4-[(3S)-3-aminopyrrolidin-1-yl]-6-cyano-N-(4,4-difluorocyclohexyl)-5-(3,5-difluorophenyl)pyridine-3-carboxamide]: the EC50 in assay [1] was more than 1000 nM; in assay [2] (Table A) it was less than 10 nM; in assay [2] (Table B), less than 10 nM. Besides, in assay [2] (Table B), the “Fold selectivity for SST5 vs SST2” value is “+++ (+++=>500)”.

For `N#Cc1ncc(C(=O)NC2CC(F)(F)C2)c(N2CC[C@H](N)C2)c1-c1cc(F)cc(F)c1` [1-68, 4-[(3S)-3-aminopyrrolidin-1-yl]-6-cyano-N-(3,3-difluorocyclobutyl)-5-(3,5-difluorophenyl)pyridine-3-carboxamide], the results for the EC50 in assay [1], in assay [2] (Table A) and in assay [2] (Table B) were more than 1000 nM, less than 10 nM and less than 10 nM, respectively. In addition, the “Fold selectivity for SST5 vs SST2” value in assay [2] (Table B) is given as “+++ (+++=>500)”.

With `C[C@H](NC(=O)c1cnc(C#N)c(-c2cc(F)cc(F)c2)c1N1CC[C@H](N)C1)C1CC1` [1-69, 4-[(3S)-3-aminopyrrolidin-1-yl]-6-cyano-N-[(1S)-1-cyclopropylethyl]-5-(3,5-difluorophenyl)pyridine-3-carboxamide], the EC50 was 100 to 1000 nM in assay [1], less than 10 nM in assay [2] (Table A) and less than 10 nM in assay [2] (Table B). Moreover, the “Fold selectivity for SST5 vs SST2” value in assay [2] (Table B) was “+++ (+++=>500)”.

`N#Cc1ncc(C(=O)NC(C2CC2)C2CC2)c(N2CC[C@H](N)C2)c1-c1cc(F)cc(F)c1` [1-70, 4-[(3S)-3-aminopyrrolidin-1-yl]-6-cyano-N-(dicyclopropylmethyl)-5-(3,5-difluorophenyl)pyridine-3-carboxamide]: the EC50 in assay [1] was more than 1000 nM; in assay [2] (Table A) it was less than 10 nM; in assay [2] (Table B), less than 10 nM. The “Fold selectivity for SST5 vs SST2” value in assay [2] (Table B) is listed as “+++ (+++=>500)”.

Turning to `C[C@H](NC(=O)c1cnc(C#N)c(-c2cc(F)cc(F)c2)c1N1CC[C@H](N)C1)C(F)(F)F` [1-71, 4-[(3S)-3-aminopyrrolidin-1-yl]-6-cyano-5-(3,5-difluorophenyl)-N-[(2S)-1,1,1-trifluoropropan-2-yl]pyridine-3-carboxamide], the EC50 in assay [1] is 100 to 1000 nM; in assay [2] (Table A), less than 10 nM; in assay [2] (Table B), less than 10 nM. Further, in assay [2] (Table B), the “Fold selectivity for SST5 vs SST2” value was “+++ (+++=>500)”.

`CCC(CC)NC(=O)c1cnc(C#N)c(-c2cc(F)cc(F)c2)c1N1CC[C@H](N)C1` [1-72, 4-[(3S)-3-aminopyrrolidin-1-yl]-6-cyano-5-(3,5-difluorophenyl)-N-(pentan-3-yl)pyridine-3-carboxamide]: the EC50 in assay [1] is 100 to 1000 nM; in assay [2] (Table A) it was less than 10 nM; in assay [2] (Table B), less than 10 nM. Further, the “Fold selectivity for SST5 vs SST2” value in assay [2] (Table B) is “+++ (+++=>500)”.

For the molecule `N#Cc1ncc(C(=O)NC2CCCCCC2)c(N2CC[C@H](N)C2)c1-c1cc(F)cc(F)c1` [1-73, 4-[(3S)-3-aminopyrrolidin-1-yl]-6-cyano-N-cycloheptyl-5-(3,5-difluorophenyl)pyridine-3-carboxamide], the EC50 in assay [1] is more than 1000 nM; in assay [2] (Table A), less than 10 nM; in assay [2] (Table B), less than 10 nM. In assay [2] (Table B), the “Fold selectivity for SST5 vs SST2” value is reported as “+++ (+++=>500)”.

For `Cc1ncc(C(=O)NC23CC(C2)C3)c(N2CC[C@](C)(N)C2)c1-c1cc(F)cc(F)c1` [1-74, 4-[(3S)-3-amino-3-methylpyrrolidin-1-yl]-N-{bicyclo[1.1.1]pentan-1-yl}-5-(3,5-difluorophenyl)-6-methylpyridine-3-carboxamide], the EC50 was more than 1000 nM in assay [1], less than 10 nM in assay [2] (Table A) and less than 10 nM in assay [2] (Table B). Moreover, in assay [2] (Table B), the “Fold selectivity for SST5 vs SST2” value is listed as “+++ (+++=>500)”.

For `CCC(CC)NC(=O)c1cnc(C#N)c(-c2cc(F)cc(F)c2)c1N1CC[C@](C)(N)C1` [1-76, 4-[(3S)-3-amino-3-methylpyrrolidin-1-yl]-6-cyano-5-(3,5-difluorophenyl)-N-(pentan-3-yl)pyridine-3-carboxamide], the results for the EC50 in assay [1], in assay [2] (Table A) and in assay [2] (Table B) were more than 1000 nM, less than 10 nM and less than 10 nM, respectively. For the same molecule, the “Fold selectivity for SST5 vs SST2” value in assay [2] (Table B) is “+++ (+++=>500)”.
